The nature of data set [1]: Example 7: cosmetic gel preparation of Asc-P, clarity at pH 7. It counts as physicochemical. Conditions: Solution A (hydrolysed SMA3000P 2.5%, 90H 1.0%, S-LPC 0.01%, Asc-P 0.1%, Phenonip 0.1%) mixed 1:1 with xanthan gum/carbopol gel. The method, then:
The emulsion was then homogenised for 10 minutes.
Preservative was then added to the solution and the pH adjusted.
Xanthan gum and carbopol were mixed with water and stirred until a uniform gel was formed. The pH was then adjusted to 7.
Solution A and Solution B were then mixed in equal volumes to produce the final preparation.

Data set [2] is described as follows: Example 5: compositions of the invention to solubilise exemplary active agents (visual clarity, pH on clearing, clarity at pH 7). The settings on record: SMA 3000HNa 2.5%, 90H 1%, S LPC 0.01%.
Experimental: A stock emulsion of cosurfactant, membrane forming lipid and active was prepared at double the desired final concentration. Cosurfactant was dissolved in water while heating (approximately 50° C.) and stirring. Lipid was then added, followed by continued stirring and heating until a uniform emulsion is formed. The emulsion was then homogenised for 10 minutes. After re-heating to approximately 50° C. the active component was added slowly under stirring until a uniform emulsion was present. The final emulsion was then homogenised for a further 10 minutes.
Stock solutions were prepared by mixing of the hydrolysed polymer with the appropriate volume of water.
Polymer/lipid mixtures were then prepared by the dropwise addition of the lipid containing emulsion to an equal volume of polymer solution while stirring and heating to approximately 50° C.
The pH of the mixtures was adjusted to determine the critical pH level at which macromolecular assemblies formed, and whether the resulting clear and colourless solution would remain at physiological pH.
Percentage values specified in this experiment refer to the weight of the component in question as a proportion of the total weight of the composition.
Mixtures were visually examined to determine whether the polymer/lipid assemblies had solubilised the active agent in the aqueous medium. The clarity of a mixture was categorised as being clear if there was no significant visible opacity to the naked eye, whereas a mixture was categorised as cloudy if there was significant visible disruption to the passage of light.

3 molecules from patent US8623414B2, “Compositions comprising a lipid and copolymer of styrene and maleic acid” (Malvren Cosmeceutics Limited, priority 2005, dated 2014) can be followed below.

Where a SMILES comes first, the peptide text is derived from it. The star is where a group is joined. Palmitoyl = CCCCCCCCCCCCCCCC(=O)*

For `CCCCCCCCCCCCCCCC(=O)OC[C@H](O)[C@H]1OC(=O)C(O)=C1O` [Asc-P, L-ascorbyl palmitate], in data set [1], the “Appearance of cosmetic preparation” value is “clear and colourless aqueous gel”. In data set [2] (active agent 0.1%), the “Clarity at pH 7” value is reported as “Clear” and the pH on clearing amounted to 8.87.

Regarding `CCCCCCCCCCCCCCCC(=O)N[C@@H](CCCCN)C(=O)N[C@H](C(=O)N[C@H](C(=O)N[C@@H](CCCCN)C(=O)N[C@@H](CO)C(=O)O)[C@@H](C)O)[C@@H](C)O` [Mat, palmityl-KTTKS] (Palmitoyl-KTTKS-OH; C-terminus assumed), in data set [2] (active agent 0.5%), the Clarity entry is reported as “Clear”, the “Clarity at pH 7” value was “Clear” and the pH on clearing is 8.86.

Take `CC1=C(/C=C/C(C)=C/C=C/C(C)=C/C=C/C=C(C)/C=C/C=C(C)/C=C/C2=C(C)CCCC2(C)C)C(C)(C)CCC1` [β-Car, β-carotene]: in data set [2] (active agent 0.1%), the Clarity result is listed as “Clear”, the “Clarity at pH 7” value was “Clear” and the pH on clearing is listed as 8.83. Besides, in data set [2] (active agent 0.25%), the Clarity entry was “Clear”, the “Clarity at pH 7” value is “Clear” and the pH on clearing was 8.83.
